Assay results as given in PubChem BioAssay AID1963974 (Molecular Pharmacology Branch, DTP, NCI, 2024).

Test system: 648629-189-R-J1-PDC spheroids with HUVEC/MSC, viability
Assay: Anticancer human tumor 648629-189-R-J1-PDC patient-derived bladder carcinoma cell line growth inhibition [PI3K]
Conditions: for IC50: curve of first compound; for viability, T/C: stronger effect = lower value
Summary of the method: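 Combination activity was assessed by viability in multicellular tumor spheroids carrying HUVEC and MSC components. Agents were tested with PI3K inhibitors from a Cmax-based top dose (or 10 microM) downward in half-log increments.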
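Also: spheroids exposed to agents for seven days before reading.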
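For viability, T/C in this document: percent of vehicle control luminescence where 100% = DMSO treated spheroids.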

**Q.** Which results are given for `Cn1ncnc1[C@H]1c2n[nH]c(=O)c3cc(F)cc(c23)N[C@@H]1c1ccc(F)cc1` + CC(Nc1ccc2c(c1)OCCn1cc(N3C(=O)OCC3C(F)F)nc1-2)C(N)=O?
**A.** IC50 (second compound 0.00316 µM): > 100 nM; IC50 (second compound 0.01 µM): > 100 nM; IC50 (second compound 0.0316 µM): > 100 nM; IC50 (second compound 0.1 µM): > 100 nM; IC50 (second compound 0.316 µM): > 100 nM; IC50 (second compound 1 µM): 68.3 nM; viability, T/C (second compound 0.00316 µM, first compound 0.000316 µM): 108%; viability, T/C (second compound 0.00316 µM, first compound 0.001 µM): 110%; viability, T/C (second compound 0.00316 µM, first compound 0.00316 µM): 102%; viability, T/C (second compound 0.00316 µM, first compound 0.01 µM): 83.5%; viability, T/C (second compound 0.00316 µM, first compound 0.0316 µM): 75.6%; viability, T/C (second compound 0.00316 µM, first compound 0.1 µM): 63.8%; viability, T/C (second compound 0.01 µM, first compound 0.000316 µM): 115%; viability, T/C (second compound 0.01 µM, first compound 0.001 µM): 106%; viability, T/C (second compound 0.01 µM, first compound 0.00316 µM): 97.3%; viability, T/C (second compound 0.01 µM, first compound 0.01 µM): 86.4%; viability, T/C (second compound 0.01 µM, first compound 0.0316 µM): 69.4%; viability, T/C (second compound 0.01 µM, first compound 0.1 µM): 62%; viability, T/C (second compound 0.0316 µM, first compound 0.000316 µM): 101%; viability, T/C (second compound 0.0316 µM, first compound 0.001 µM): 99.2%; viability, T/C (second compound 0.0316 µM, first compound 0.00316 µM): 96%; viability, T/C (second compound 0.0316 µM, first compound 0.01 µM): 79.2%; viability, T/C (second compound 0.0316 µM, first compound 0.0316 µM): 82%; viability, T/C (second compound 0.0316 µM, first compound 0.1 µM): 61.7%; viability, T/C (second compound 0.1 µM, first compound 0.000316 µM): 97.8%; viability, T/C (second compound 0.1 µM, first compound 0.001 µM): 93.4%; viability, T/C (second compound 0.1 µM, first compound 0.00316 µM): 105%; viability, T/C (second compound 0.1 µM, first compound 0.01 µM): 77.5%; viability, T/C (second compound 0.1 µM, first compound 0.0316 µM): 70.2%; viability, T/C (second compound 0.1 µM, first compound 0.1 µM): 55.3%; viability, T/C (second compound 0.316 µM, first compound 0.000316 µM): 76%; viability, T/C (second compound 0.316 µM, first compound 0.001 µM): 86.7%; viability, T/C (second compound 0.316 µM, first compound 0.00316 µM): 73.3%; viability, T/C (second compound 0.316 µM, first compound 0.01 µM): 69.7%; viability, T/C (second compound 0.316 µM, first compound 0.0316 µM): 60.9%; viability, T/C (second compound 0.316 µM, first compound 0.1 µM): 55.5%; viability, T/C (second compound 1 µM, first compound 0.000316 µM): 69.5%; viability, T/C (second compound 1 µM, first compound 0.001 µM): 60.5%; viability, T/C (second compound 1 µM, first compound 0.00316 µM): 69.2%; viability, T/C (second compound 1 µM, first compound 0.01 µM): 66%; viability, T/C (second compound 1 µM, first compound 0.0316 µM): 61%; viability, T/C (second compound 1 µM, first compound 0.1 µM): 44.4%
